Measurements: patent publication US6441195B1, “Substituted sulphonylamino(thio) carbonyl compounds” (Bayer Aktiengesellschaft, priority 1995, dated 2002)

Tests used:
Type in all cases: in vivo
Matricaria [1] = assay: Pre-emergence test/Greenhouse, Matricaria; conditions: after three weeks
Method in brief: (§1)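 Emulsifier-formulated compound applied by soil watering ~24 h after sowing; damage scored at three weeks as % of untreated control.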

Echinochloa = assay: Post-emergence test/greenhouse, Echinochloa; conditions: greenhouse, after three weeks
Experimental: (§2) Solvent: 5 parts by weight of acetone
(§3) Emulsifier: 1 part by weight of alkylaryl polyglycol ether
(§4) To produce a suitable preparation of active compound, 1 part by weight of active compound is mixed with the stated amount of solvent, the stated amount of emulsifier is added and the concentrate is diluted with water to the desired concentration.
(§5) Test plants which have a height of 5-15 cm are sprayed with the preparation of the active compound in such a way as to apply the particular amounts of active compound desired per unit area. The concentration of the spray liquor is chosen so that the particular amounts of active compound desired are applied in 2000 l of water/ha.
(§6) After three weeks, the degree of damage to the plants is rated in % damage in comparison to the development of the untreated control.
(§7) 0%=no action (like untreated control)

Gallium = assay: Post-emergence test/greenhouse, Gallium; conditions: greenhouse, after three weeks
Experimental: as §2, §3, §4, §5, §6, §7

Lolium [2] = assay: Pre-emergence test/Greenhouse, Lolium; conditions: after three weeks
Method in brief: as §1

Amaranthus = assay: Post-emergence test/greenhouse, Amaranthus; conditions: greenhouse, after three weeks
Experimental: as §2, §3, §4, §5, §6, §7

weeds [3] = assay: Post-emergence test (greenhouse), activity against weeds; conditions: in words
Experimental: as §2, §3, §4, §5, §6, §7

Ambrosia = assay: Pre-emergence test/Greenhouse, Ambrosia; conditions: after three weeks
Method in brief: as §1

Lolium [4] = assay: Post-emergence test/greenhouse, Lolium; conditions: greenhouse, after three weeks
Experimental: as §2, §3, §4, §5, §6, §7

Stellaria = assay: Post-emergence test/greenhouse, Stellaria; conditions: greenhouse, after three weeks
Experimental: as §2, §3, §4, §5, §6, §7

Maize [5] = assay: Pre-emergence test/Greenhouse, Maize; conditions: in vivo
Method in brief: as §1

Sorghum [6] = assay: Pre-emergence test/Greenhouse, Sorghum; conditions: after three weeks
Method in brief: as §1

Maize [7] = assay: Post-emergence test/greenhouse, Maize; conditions: greenhouse, after three weeks
Experimental: as §2, §3, §4, §5, §6, §7

Poa = assay: Pre-emergence test/Greenhouse, Poa; conditions: after three weeks
Method in brief: as §1

Sorghum [8] = assay: Post-emergence test/greenhouse, Sorghum; conditions: greenhouse, after three weeks
Experimental: as §2, §3, §4, §5, §6, §7

Solanum = assay: Pre-emergence test/Greenhouse, Solanum; conditions: after three weeks
Method in brief: as §1

Matricaria [9] = assay: Post-emergence test/greenhouse, Matricaria; conditions: greenhouse, after three weeks
Experimental: as §2, §3, §4, §5, §6, §7

weeds [10] = assay: Pre-emergence test (greenhouse), activity against weeds; conditions: in words
Method in brief: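 Three weeks after treatment, % damage relative to untreated plants is scored, 0% meaning no effect. Seeds in normal soil received, roughly one day post-sowing, an aqueous dilution of an acetone/emulsifier concentrate, with the rate per unit area, not concentration, being the relevant dose.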

Digitaria = assay: Post-emergence test/greenhouse, Digitaria; conditions: greenhouse, after three weeks
Experimental: as §2, §3, §4, §5, §6, §7

Soya beans = assay: Pre-emergence test/Greenhouse, Soya beans; conditions: in vivo
Method in brief: as §1

Row | SMILES | activity against weeds (weeds [3]) | degree of damage to the plants (% damage vs untreated control), Maize (Maize [5]) | activity against weeds (weeds [10]) | degree of damage, Echinochloa (Echinochloa; 60 g of ai./ha) | degree of damage, Gallium (Gallium; 60 g of ai./ha) | degree of damage, Lolium (Lolium [4]; 60 g of ai./ha) | degree of damage, Stellaria (Stellaria; 60 g of ai./ha) | degree of damage, Maize (Maize [7]; 60 g of ai./ha) | degree of damage, Sorghum (Sorghum [8]; 60 g of ai./ha) | degree of damage to the plants (% damage vs untreated control), Soya beans (Soya beans) | degree of damage, Matricaria (Matricaria [9]; 60 g of ai./ha) | degree of damage, Digitaria (Digitaria; 60 g of ai./ha) | degree of damage, Amaranthus (Amaranthus; 60 g of ai./ha) | further results
1 | COC(=O)c1scc(C)c1S(=O)(=O)NC(=O)n1nc(SC)n(C)c1=O [Example 6] | very strong activity against weeds | 0% | very strong activity against weeds |  |  |  |  |  |  |  |  |  |  | degree of damage to the plants (% damage vs untreated control), Matricaria (Matricaria [1]; 125 g of ai./ha): 95%; degree of damage, Echinochloa (Echinochloa; 400 g of ai./ha): 95%; degree of damage, Gallium (Gallium; 400 g of ai./ha): 90%; degree of damage to the plants (% damage vs untreated control), Lolium (Lolium [2]; 125 g of ai./ha): 95%; degree of damage, Amaranthus (Amaranthus; 400 g of ai./ha): 100%; degree of damage to the plants (% damage vs untreated control), Ambrosia (Ambrosia; 125 g of ai./ha): 95%; degree of damage, Lolium (Lolium [4]; 400 g of ai./ha): 95%; degree of damage, Stellaria (Stellaria; 400 g of ai./ha): 100%; degree of damage to the plants (% damage vs untreated control), Sorghum (Sorghum [6]; 125 g of ai./ha): 95%; degree of damage, Maize (Maize [7]; 400 g of ai./ha): 20%; degree of damage to the plants (% damage vs untreated control), Poa (Poa; 125 g of ai./ha): 95%; degree of damage, Sorghum (Sorghum [8]; 400 g of ai./ha): 80%; degree of damage to the plants (% damage vs untreated control), Solanum (Solanum; 125 g of ai./ha): 95%; degree of damage, Matricaria (Matricaria [9]; 400 g of ai./ha): 100%; degree of damage, Digitaria (Digitaria; 400 g of ai./ha): 90%
2 | CCOC(=O)c1cccc(C)c1S(=O)(=O)NC(=O)n1nc(SC)n(C)c1=O [Example 7] | very strong activity against weeds | 0% | very strong activity against weeds | 95% | 95% | 95% | 100% | 15% | 100% | 0% | 95% | 95% |  | degree of damage to the plants (% damage vs untreated control), Matricaria (Matricaria [1]; 60 g of ai./ha): 95%; degree of damage to the plants (% damage vs untreated control), Lolium (Lolium [2]; 60 g of ai./ha): 95%; degree of damage to the plants (% damage vs untreated control), Ambrosia (Ambrosia; 60 g of ai./ha): 95%; degree of damage to the plants (% damage vs untreated control), Sorghum (Sorghum [6]; 60 g of ai./ha): 95%
3 | COCc1nn(C(=O)NS(=O)(=O)c2c(C)csc2C(=O)OC)c(=O)n1C1CC1 [Example 28] | very strong activity against weeds | 0% | very strong activity against weeds | 80% | 80% | 60% | 100% | 10% | 95% |  | 90% | 90% | 100% | degree of damage to the plants (% damage vs untreated control), Matricaria (Matricaria [1]; 60 g of ai./ha): 95%; degree of damage to the plants (% damage vs untreated control), Lolium (Lolium [2]; 60 g of ai./ha): 95%; degree of damage to the plants (% damage vs untreated control), Ambrosia (Ambrosia; 60 g of ai./ha): 95%; degree of damage to the plants (% damage vs untreated control), Sorghum (Sorghum [6]; 60 g of ai./ha): 95%; degree of damage to the plants (% damage vs untreated control), Poa (Poa; 60 g of ai./ha): 95%; degree of damage to the plants (% damage vs untreated control), Solanum (Solanum; 60 g of ai./ha): 95%
4 | CCOc1nn(C(=O)NS(=O)(=O)c2c(C)csc2C(=O)OC)c(=O)n1C1CC1 [Example 30] | very strong activity against weeds | 0% | very strong activity against weeds | 70% | 85% | 60% | 100% | 15% | 95% |  | 100% | 90% | 100% | degree of damage to the plants (% damage vs untreated control), Matricaria (Matricaria [1]; 30 g of ai./ha): 95%; degree of damage to the plants (% damage vs untreated control), Lolium (Lolium [2]; 30 g of ai./ha): 95%; degree of damage to the plants (% damage vs untreated control), Ambrosia (Ambrosia; 30 g of ai./ha): 95%; degree of damage to the plants (% damage vs untreated control), Sorghum (Sorghum [6]; 30 g of ai./ha): 80%; degree of damage to the plants (% damage vs untreated control), Poa (Poa; 30 g of ai./ha): 95%; degree of damage to the plants (% damage vs untreated control), Solanum (Solanum; 30 g of ai./ha): 95%
5 | COC(=O)c1scc(C)c1S(=O)(=O)NC(=O)n1nc(OC)n(C)c1=O [Example 31] | very strong activity against weeds | 10% | very strong activity against weeds |  |  |  |  |  |  |  |  |  |  | degree of damage to the plants (% damage vs untreated control), Matricaria (Matricaria [1]; 15 g of ai./ha): 95%; degree of damage, Echinochloa (Echinochloa; 30 g of ai./ha): 95%; degree of damage, Gallium (Gallium; 30 g of ai./ha): 80%; degree of damage to the plants (% damage vs untreated control), Lolium (Lolium [2]; 15 g of ai./ha): 95%; degree of damage, Amaranthus (Amaranthus; 30 g of ai./ha): 100%; degree of damage to the plants (% damage vs untreated control), Ambrosia (Ambrosia; 15 g of ai./ha): 95%; degree of damage, Lolium (Lolium [4]; 30 g of ai./ha): 90%; degree of damage, Stellaria (Stellaria; 30 g of ai./ha): 95%; degree of damage to the plants (% damage vs untreated control), Sorghum (Sorghum [6]; 15 g of ai./ha): 80%; degree of damage, Maize (Maize [7]; 30 g of ai./ha): 5%; degree of damage to the plants (% damage vs untreated control), Poa (Poa; 15 g of ai./ha): 95%; degree of damage, Sorghum (Sorghum [8]; 30 g of ai./ha): 80%; degree of damage to the plants (% damage vs untreated control), Solanum (Solanum; 15 g of ai./ha): 95%; degree of damage, Matricaria (Matricaria [9]; 30 g of ai./ha): 100%; degree of damage, Digitaria (Digitaria; 30 g of ai./ha): 95%
6 | CCOc1nn(C(=O)NS(=O)(=O)c2c(C)cccc2C(=O)OC(C)C)c(=O)n1C [Example 44] | very strong activity against weeds | 30% | very strong activity against weeds | 90% | 95% | 70% |  | 50% | 100% | 0% | 95% | 60% | 100% | degree of damage to the plants (% damage vs untreated control), Matricaria (Matricaria [1]; 8 g of ai./ha): 95%; degree of damage to the plants (% damage vs untreated control), Lolium (Lolium [2]; 8 g of ai./ha): 95%; degree of damage to the plants (% damage vs untreated control), Ambrosia (Ambrosia; 8 g of ai./ha): 95%; degree of damage to the plants (% damage vs untreated control), Sorghum (Sorghum [6]; 8 g of ai./ha): 95%; degree of damage to the plants (% damage vs untreated control), Poa (Poa; 8 g of ai./ha): 95%; degree of damage to the plants (% damage vs untreated control), Solanum (Solanum; 8 g of ai./ha): 95%
7 | CCOC(=O)c1scc(C)c1S(=O)(=O)NC(=O)n1nc(OCC)n(C)c1=O [Example 54] | very strong activity against weeds | 0% | very strong activity against weeds | 95% | 85% | 95% | 100% | 30% | 95% |  | 100% |  | 100% | degree of damage to the plants (% damage vs untreated control), Matricaria (Matricaria [1]; 30 g of ai./ha): 95%; degree of damage to the plants (% damage vs untreated control), Lolium (Lolium [2]; 30 g of ai./ha): 95%; degree of damage to the plants (% damage vs untreated control), Ambrosia (Ambrosia; 30 g of ai./ha): 95%; degree of damage to the plants (% damage vs untreated control), Sorghum (Sorghum [6]; 30 g of ai./ha): 80%; degree of damage to the plants (% damage vs untreated control), Poa (Poa; 30 g of ai./ha): 95%; degree of damage to the plants (% damage vs untreated control), Solanum (Solanum; 30 g of ai./ha): 95%
8 | CCOc1nn(C(=O)NS(=O)(=O)c2c(C)cccc2C(=O)OC)c(=O)n1C [Example 163] | very strong activity against weeds | 20% | very strong activity against weeds | 70% | 95% | 80% | 95% | 60% | 95% | 0% | 100% | 80% | 100% | degree of damage to the plants (% damage vs untreated control), Lolium (Lolium [2]; 4 g of ai./ha): 80%; degree of damage to the plants (% damage vs untreated control), Ambrosia (Ambrosia; 4 g of ai./ha): 80%; degree of damage to the plants (% damage vs untreated control), Sorghum (Sorghum [6]; 4 g of ai./ha): 60%; degree of damage to the plants (% damage vs untreated control), Poa (Poa; 4 g of ai./ha): 95%; degree of damage to the plants (% damage vs untreated control), Solanum (Solanum; 4 g of ai./ha): 90%
